The nature of series [1]: The drug is tested on Z-029 corresponding to rat gut metagenome with ENA study accession number: PRJEB37062 and ENA sample accession number: ERS12561828 for biotransformation under anaerobic condition. The drug concentrations were measured over 9 timepoints collected between 0 and 24 hours of incubation by liquid-chromatography-coupled mass spectrometry (LC–MS). To be noted: 2 µM.

Series [2] is described as follows: The drug is tested on Z-024 corresponding to pig gut metagenome with ENA study accession number: PRJEB37062 and ENA sample accession number: ERS12561823 for biotransformation under anaerobic condition. The drug concentrations were measured over 9 timepoints collected between 0 and 24 hours of incubation by liquid-chromatography-coupled mass spectrometry (LC–MS). The following applies: 2 µM.

Series [3] is described as follows: The drug is tested on Z-021 corresponding to metagenome with ENA study accession number: PRJEB37062 and ENA sample accession number: ERS12561820 for biotransformation under anaerobic condition. The drug concentrations were measured over 9 timepoints collected between 0 and 24 hours of incubation by liquid-chromatography-coupled mass spectrometry (LC–MS). To be noted: 2 µM.

Series [4] is described as follows: The drug is tested on Z-020 corresponding to rabbit gut metagenome with ENA study accession number: PRJEB37062 and ENA sample accession number: ERS12561819 for biotransformation under anaerobic condition. The drug concentrations were measured over 9 timepoints collected between 0 and 24 hours of incubation by liquid-chromatography-coupled mass spectrometry (LC–MS). The following applies: 2 µM.

A short description of series [5]: The drug is tested on Z-011 corresponding to mouse gut metagenome with ENA study accession number: PRJEB37062 and ENA sample accession number: ERS12561811 for biotransformation under anaerobic condition. The drug concentrations were measured over 9 timepoints collected between 0 and 24 hours of incubation by liquid-chromatography-coupled mass spectrometry (LC–MS). The following applies: 2 µM.

Series [6] in a line: The drug is tested on Z-006 corresponding to mouse gut metagenome with ENA study accession number: PRJEB37062 and ENA sample accession number: ERS12561806 for biotransformation under anaerobic condition. The drug concentrations were measured over 9 timepoints collected between 0 and 24 hours of incubation by liquid-chromatography-coupled mass spectrometry (LC–MS). The following applies: 2 µM.

Series [7] in a line: The drug is tested on Z-004 corresponding to metagenome with ENA study accession number: PRJEB37062 and ENA sample accession number: ERS12561804 for biotransformation under anaerobic condition. The drug concentrations were measured over 9 timepoints collected between 0 and 24 hours of incubation by liquid-chromatography-coupled mass spectrometry (LC–MS). To be noted: 2 µM.
Series [8] is described as follows: The drug is tested on Z-001 corresponding to mouse gut metagenome with ENA study accession number: PRJEB37062 and ENA sample accession number: ERS12561801 for biotransformation under anaerobic condition. The drug concentrations were measured over 9 timepoints collected between 0 and 24 hours of incubation by liquid-chromatography-coupled mass spectrometry (LC–MS). To be noted: 2 µM.

A short description of series [9]: The drug is tested on WLS-240 corresponding to human gut metagenome with ENA study accession number: PRJEB37062 and ENA sample accession number: ERS12561773 for biotransformation under anaerobic condition. The drug concentrations were measured over 9 timepoints collected between 0 and 24 hours of incubation by liquid-chromatography-coupled mass spectrometry (LC–MS). The following applies: 2 µM.

A short description of series [10]: The drug is tested on WLS-170 corresponding to human gut metagenome with ENA study accession number: PRJEB37062 and ENA sample accession number: ERS12561762 for biotransformation under anaerobic condition. The drug concentrations were measured over 9 timepoints collected between 0 and 24 hours of incubation by liquid-chromatography-coupled mass spectrometry (LC–MS). The following applies: 2 µM.

Series [11] can be described thus: The drug is tested on WLS-069 corresponding to human gut metagenome with ENA study accession number: PRJEB37062 and ENA sample accession number: ERS12561748 for biotransformation under anaerobic condition. The drug concentrations were measured over 9 timepoints collected between 0 and 24 hours of incubation by liquid-chromatography-coupled mass spectrometry (LC–MS). To be noted: 2 µM.

Series [12] can be described thus: The drug is tested on WLS-039 corresponding to human gut metagenome with ENA study accession number: PRJEB37062 and ENA sample accession number: ERS12561746 for biotransformation under anaerobic condition. The drug concentrations were measured over 9 timepoints collected between 0 and 24 hours of incubation by liquid-chromatography-coupled mass spectrometry (LC–MS). The following applies: 2 µM.

Series [13] can be described thus: The drug is tested on WLS-007 corresponding to human gut metagenome with ENA study accession number: PRJEB37062 and ENA sample accession number: ERS12561742 for biotransformation under anaerobic condition. The drug concentrations were measured over 9 timepoints collected between 0 and 24 hours of incubation by liquid-chromatography-coupled mass spectrometry (LC–MS). To be noted: 2 µM.

For series [14] the following is noted: human gut metagenome, 24 h, 2 µM.
For series [15] the following is noted: human gut metagenome, 24 h, 2 µM. The source holds these as a separate data set.
The conditions of series [16]: human gut metagenome, 24 h, 2 µM. The source holds these as a separate data set.
For series [17] the following is noted: human gut metagenome, 24 h, 2 µM. This is another data set of the same source.
For series [18] the following is noted: human gut metagenome, 24 h, 2 µM. The source holds these as a separate data set.
For series [19] the following is noted: human gut metagenome, 24 h, 2 µM. This is another data set of the same source.
The conditions of series [20]: human gut metagenome, 24 h, 2 µM. The source holds these as a separate data set.
Also: call rule not given here.

As to `C[C@@H](c1ncncc1F)[C@](O)(Cn1cncn1)c1ccc(F)cc1F` [VORICONAZOLE], the “Bacterial Biotransformation” value in [1] is listed as “Compound metabolized”; in series [2] it was “Compound metabolized”; in [3] it was “Compound NOT metabolized”; in series [4] it was “Compound metabolized”; in series [5], “Compound NOT metabolized”; in series [6], “Compound NOT metabolized”. Further, the “Bacterial Biotransformation” value in series [7] is recorded as “Compound NOT metabolized”; in series [8] it was “Compound NOT metabolized”; in series [9], “Compound metabolized”; in [10] it was “Compound metabolized”; in series [11], “Compound metabolized”; in [12], “Compound metabolized”. For the same compound, the “Bacterial Biotransformation” value in [13], in [14], in series [15], in [16], in [17] and in series [18] was “Compound metabolized” each time. Moreover, the “Bacterial Biotransformation” value in series [19] and in series [20] was “Compound metabolized” throughout.

Values taken from ChEMBL document CHEMBL5724914, “Linking interpersonal differences in gut microbiota composition and drug biotransformation activity” (2024).
